The nature of series [1]: Maximum soluble concentration in artificial tears. The series is classed as physicochemical. The conditions noted are these: saline or isotonic.
In series [2] the test system is ocular lenses from 8-month-old C57BL/6 mice. The experiment in a line: Ex vivo lens stiffness screen, single-point variant of the coverslip method. Also on record: species or system mouse. The conditions noted are these: 20 mM; for Avg. % Compress.: lenses incubated 12 hours at 37° C., 588.0 mg coverslip weight. How it is done: An ex vivo screen was conducted to evaluate the effect of multiple compounds on lens stiffness using a more efficient variant of the coverslip method (Cheng, et al., J. Vis. Exp., 111: 53986 (2016). Our variant uses a single measurement point to enable multidrug screening, utilizing a weight deemed optimal based on coverslip quantity-response curves. Previously dissected and frozen eyes from 8-month-old C57BL/6 mice were thawed, and the ocular lenses were removed via micro-dissection. Next, intact ocular lenses were immersed and incubated in test compound solutions at various concentrations for 12 hours at 37° C. Individual washed lenses were placed into a divot in a solution-filled plexiglass measurement chamber, where uncompressed axial diameter was assessed. Then 3 glass coverslips glued together, with a total weight of 588.0 mg, were placed on top of the lens, and the axial diameter was remeasured. Change in lens stiffness was calculated as the ratio between the axial diameter of compressed lens to the axial diameter of the unweighted lens (compressed/uncompressed), with higher ratios indicative of more flexibility. To address an important limitation with ex vivo lens treatment (that lens stiffness increases over time, by default, when the lens is removed from the eye post-mortem), we compared treatment with NAC to freshly dissected 8-month lenses and observed natural stiffening occurred during the 12-hour incubation period (10.34% mean compression, n=10).

Series [3] deals with lens stiffness in 7-month-old C57BL/6 mice. The experiment in a line: In vivo efficacy: lens stiffness after eyedrop treatment (Example 4). Also on record: species or system mouse. Particulars: for average total compression: eyedrops, 28-day treatment, fluoro compound 200 mM, LACE 1.5% (PBS vehicle); for lens stiffness versus vehicle treated mice: fluoro compound 200 mM (also versus LACE), LACE 1.5%. The procedure:
Rationale and goal: To determine the effect of N-acetylcysteine (NAC) and its variants on reducing lenses stiffness in vivo.
The following sample groups were tested in 7-month-old C57BL/6 mice: vehicle (artificial tears)(40 mice), N-acetylcysteine 20 mM (20 mice), N-(2-fluoro-2-methyl-1-propylcarbonyl)-cysteine 200 mM (10 mice), LACE (lipoic acid choline ester) 1.5% (PBS vehicle) (10 mice), 2-month-old mice (untreated) (7 mice).
Vehicle-treated mice averaged 199.34 micrometers total compression (std. dev 32.16). […] Mice treated with LACE averaged 209.68 micrometers total compression (std. dev 28.16).

For series [4] the test system is unchanged. The experiment in a line: Initial in vivo lens stiffness test with NAC eyedrops for one month. Also noted: species or system mouse. How it is done: An initial in vivo test was conducted on NAC utilizing 7-month-old C57BL/6 mice subsequently treated for one month 2×/day with both 100 mM and 20 mM NAC eyedrops (artificial tears was used as the vehicle). During the last day, animals were sacrificed, eyes enucleated, and lenses were removed. Lens stiffness was measured by the same assay as ex vivo, with measurements taken within 5-10 minutes of lens removal. Both a 588 mg and 1047 mg weight were used in the assay.

In series [5] the test system is Eight-month-old C57BL/6 mice. The experiment in a line: One-month eyedrop tolerability and histology in the aqueous humor study. Particulars: 100 mM eyedrops 2×/day for 1 month. It is filed as in vivo. How it is done:
(§1) Eight-month-old C57BL/6 mice were given […] eyedrops of 100 mM N-(2-fluoro-2-methyl-1-propylcarbonyl)-cysteine, 100 mM N-pivaloylcysteine, or 100 mM NAC for 1 month at 2×/day. 10 mice were present in each group. […] Safety via histology was positive.

Series [6] can be described thus: Aqueous humor LC/MS concentration comparison (corneal penetration). It is filed as in vivo, mouse. Particulars: 100 mM eyedrops 2×/day for 1 month; for concentration at 1 h: C57BL/6, mouse, aqueous humor, topical. The procedure: A study was conducted to assess the degree to which N-(2-fluoro-2-methyl-1-propylcarbonyl)-cysteine penetrated the mouse cornea, as compared to NAC and N-pivaloylcysteine.
as §1
On the final day aqueous humor was drawn from the eyes (average of 1-5 μL extracted) 1 hour after final dose, and the concentration of each compound quantified via LC/MS (column: Atlantis T3, 100×2.1 mm, 5 μm; mobile phases: A: Water/Formic Acid (1000/5, v/v), B: Acetonitrile/Methanol/Formic Acid (50/50/0.3, v/v/v).

In series [7] the test system is ocular lenses from 8-month-old C57BL/6 mice. Description: Ex vivo lens stiffness screen, single-point variant of the coverslip method. Also on record: species or system mouse. The conditions noted are these: 1-hour of incubation with NAC.
Series [8] deals with Two-month-old C57BL/6 mice. The experiment in a line: Toxicology and dosing optimization in mice, 1 week of eyedrops (Example 5). The series is classed as in vivo, mouse. The procedure:
A study was conducted to assess the maximum tolerable dose of N-(2-fluoro-2-methyl-1-propylcarbonyl)-cysteine (and its S-acetylated counterpart, N-(2-fluoro-2-methyl-1-propylcarbonyl)-S-acetylcysteine for lens stiffness reduction and to assess via histology whether any safety issues arose from 1 week of treatment with these compounds, particularly in the lens and cornea.
Two-month-old C57BL/6 mice were treated 2×/day with treatment compounds (see sample groups (n=5) and concentrations below). Animals were assessed for itching and scratching/blinking after dosing, hyperemia, lid swelling, discharge, and squinting, all on a scale of 1-4. Those scoring were blinded to treatment groups. Following euthanasia eyes were fixed and stained with H+E, and corneal and lens anatomy in the two highest concentration groups considered tolerable were assessed.

In the next series the test system is aged mouse lenses. Particulars: background statement; cited from earlier work.
[9] abbreviates: drawn 1 hour after final dose, LC/MS.
The mark [10] stands for this setting: listed as N-(2-fluoro-2-methyl-1-oxopropyl)-cysteine.

≈ marks a conversion by molar mass, not a printed value. Read-outs that look alike come from different tables or passages of the source. Non-standard residues stand in square brackets, D forms with d. Residues, ends and D or L forms follow the SMILES beside them. Aib = CC(C)(N)C(=O)O

For `CC(=O)SCC(NC(=O)C(C)(C)F)C(=O)O` (stereo not drawn), the solubility in series [1] (artificial tears, read-out: maximum soluble concentration in artificial tears) is 300 mM (≈ 75.4 mg/mL).

As for `CCCCCC(=O)N[C@@H](CS)C(=O)O` [N-(n-pentylcarbonyl)-cysteine], the “Avg. % Compress.” value in [2] was determined as 4.31%.

For `C[N+](C)(C)CCOC(=O)CCCC[C@@H]1CCSS1` [LACE, Lipoic acid choline ester, reference compound], in series [3], the average total compression is listed as 209.68 micrometers and the “lens stiffness versus vehicle treated mice” value is on record as “did not significantly improve”.

On to `CC(C)(N)C(=O)N[C@@H](CS)C(=O)O` (H-[Aib]-Cys-OH), for which the “Avg. % Compress.” value in series [2] is recorded as 5.68%.

Regarding `CC(=O)N[C@H](CS)C(=O)O` [N-acetyl-D-cysteine], in series [4] (a later study, conditions not given), the “improvement versus vehicle (lens stiffness)” value was “significant improvement versus vehicle but at a reduced power versus NAC”.

In the case of `CC(C)(C)C(=O)N[C@@H](CS)C(=O)O` [N-pivaloylcysteine, N-(2,2-dimethyl-1-oxopropyl)-cysteine], in series [5], the Safety via histology result is reported as “positive” and the “increase of tolerability issues including blinking or hyperemia over time” value was “No noticeable increase”. Besides, in series [2], the “improvement over NAC in ex vivo lens stiffness” value was “significant improvement”; the “rank of improvement among tested derivatives, ex vivo lens stiffness” value (“rank” for short) is listed as “largest improvement”; the “Avg. % Compress.” value stood at 6.82%. The concentration at 1 h in series [6] (setting [9]) worked out at 38 µM.

For the molecule `CC(=O)N[C@@H](CS)C(=O)O` [N-acetyl-cysteine, reference compound], the “improvement in lens stiffness over vehicle” value in [4] (20 mM eyedrops 2×/day for one month) is “minor and insignificant improvement”; in series [4] (100 mM eyedrops 2×/day for one month, 588 mg and 1047 mg weights), “significant improvement”. The “Avg. % Compress.” value in [2] is reported as 5.76%. Further, the “lens stiffness compared to untreated (vehicle) control lenses” value in series [2] (ex vivo screen) is “significantly improved”. Besides, in [6] (setting [9]), the aqueous humor concentration is 17 out of 20 samples falling below the limit of detection. For the same molecule, the “improvement of lens stiffness compared to vehicle” value in [7] was 2.07%.

As to `CC(C)(F)C(=O)N[C@@H](CS)C(=O)O` [listing 1 of 2 here], in [8] (200 mM, 2×/day for 1 week), the tolerability result is reported as “tolerable”. Besides, in series [8] (mouse, in vivo), the “Histology of treated lenses” value is given as “entirely normal”. In addition, in [5], the Safety via histology result is “positive” and the “increase of tolerability issues including blinking or hyperemia over time” value is given as “No noticeable increase”. Besides, in [2], the “rank” value is reported as “superior lens stiffness reducing efficacy” and the “Avg. % Compress.” value amounted to 6.87%. Moreover, in series [6], the “aqueous humor concentration and corneal penetration over NAC and N-pivaloylcysteine” value is “improved”. Besides, in [6] (setting [9]), the concentration at 1 h amounted to 47 µM. The molecule also came in with a solubility in [1] of 200 mM (≈ 41.8 mg/mL). The “improvement over NAC in vivo” value in series [3] (200 mM vs N-acetylcysteine 20 mM) is listed as “significant improvement”. In addition, in series [3] (200 mM, relative to 2-month-old untreated mice and 8-month vehicle), the “lens stiffness lost to aging from 2-8 months restored” value worked out at 67.9%. Besides, in [3], the average total compression was found to be 281.05 micrometers and the “lens stiffness versus vehicle treated mice” value is listed as “significantly reduced”.

Consider `O=C(Cc1ccccc1)N[C@@H](CS)C(=O)O` [N-benzylcarbonyl-cysteine], for which the “Avg. % Compress.” value in series [2] was determined as 4.38%.

With `CN(C)C(=O)N[C@@H](CS)C(=O)O` [N-dimethylaminocarbonyl-cysteine], in [2], the “Avg. % Compress.” value was 4.19%.

For the molecule `COC(C)(C)C(=O)N[C@@H](CS)C(=O)O`, in series [2], the “Avg. % Compress.” value was 6.38%.

As to `O=C(N[C@@H](CS)C(=O)O)c1ccccc1` [N-phenylcarbonyl-cysteine], in series [2], the “Avg. % Compress.” value amounted to 5.98%.

For `CC(C)(C(=O)N[C@@H](CS)C(=O)O)c1ccccc1`, the “Avg. % Compress.” value in [2] is given as 6.18%.

As for `CC(C)(F)C(=O)N[C@@H](CS)C(=O)O` [listing 2 of 2 here], in [2] (setting [10]), the “improvement over NAC in ex vivo lens stiffness” value is listed as “significant improvement” and the “rank” value is reported as “highest mean significance as well as the highest significance vs vehicle”.

Turning to `CC(C)C(=O)N[C@@H](CS)C(=O)O` [N-(isopropylcarbonyl)-cysteine], in series [2], the “Avg. % Compress.” value is listed as 6.71%.

Regarding `CC(=O)N[C@@H](CSC(C)=O)C(=O)O` [S,N-diacetylcysteine], the “lens stiffness in ex vivo treated aged mouse lenses” value in the series with aged mouse lenses is given as “reduces lens stiffness”.

As for `CCC(C)(C)C(=O)N[C@@H](CS)C(=O)O`, the “Avg. % Compress.” value in series [2] turned out to be 6.29%.

As to `O=C(N[C@@H](CS)C(=O)O)C1CC1` [N-cyclopropylcarbonyl-cysteine], in [2], the “Avg. % Compress.” value is 6.02%.
